Reference: patent US11458203B2, “Pharmaceutical compositions comprising caffeic acid chelates” (Arizona Board of Regents, on behald of Arizona State …, priority 2017, dated 2022)
Like-named read-outs stand apart in the source and are kept apart here.

Assays:
HSV1 = HSV1 plaque formation assay in Vero cells; type: cell-based; details: for IC50: read-out: HSV1 IC50; for antiviral activity of the substance by itself (in words): component alone, not combined
HSV2 = HSV2 plaque formation assay in Vero cells; type: cell-based; details: FIG. 6
Protocol: The antiviral assays were conducted as follows. For HSV1 and HSV2, Vero cells were grown in Dulbecco's minimal essential media containing 10% heat inactivated fetal bovine serum and antibiotic/antimycotic (ThermoFisher) in a 37° C., 5% CO2 incubator. Cells were seeded in standard 6-well tissue culture dishes. HSV1 virus was diluted to 100 plaque forming units/100 μL complete media. The virus samples were treated for 15 minutes with the indicated concentrations of the test compound/material. These treated viral samples were used to infect the confluent Vero cell monolayers. Cells were infected for 1 hour at 37° C. with occasional rocking. After 1 hour, 2 mLs of complete media was added to each well. The test compound was added to the media at the indicated concentration. The dishes were placed in the incubator for 3 days. After 3 days, the media was removed and the cells stained with 0.5% crystal violet. The number of plaques present were counted by hand and graphed as a percent relative to untreated samples.

VSV-Ebola pseudotype = type: cell-based, VSV-Ebola pseudotype (Zaire Ebola virus glycoprotein)
[1] = system: vaccinia virus (Copenhagen strain); type: cell-based; details: FIG. 6
[2] = system: vesicular stomatitis virus (VSV); type: cell-based; details: FIG. 6
Zika virus = type: cell-based; details: at the concentrations tested
Rhinovirus 14 = type: cell-based
reovirus type 3 = type: cell-based
Vero cells = details: African green monkey, 24 h, 27000 μM
[3] = test compound paired with Fe^3+, FIG. 7 and FIG. 8
[4] = Human alphaherpesvirus 1, Vero, test compound paired with Fe^3+, single dose-response trial, minimum three concentrations, FIG. 7 and FIG. 8

Compound: O=C(O)C=Cc1ccc(O)cc1O [2,4-dihydroxycinnamic acid]
- anti-HSV1 activity (in words) (HSV1; [3]): inactivity

Compound: O=C(O)c1ccc(O)c(O)c1 [3,4-dihydroxybenzoic acid]
- anti-HSV1 activity (in words) (HSV1; [3]): low activity

Compound: O=C(O)Cc1ccc(O)c(O)c1 [3,4-dihydroxylphenylacetic acid]
- IC50 (HSV1; [4]): 101 µM

Compound: O=C(O)C(O)Cc1ccc(O)c(O)c1 (stereo not drawn) [Danshensu, 3-(3,4-dihydroxyphenyl)-2-hydroxypropanoic acid]
- IC50 (HSV1; Human alphaherpesvirus 1, Vero): 47.1 µM

Compound: CC(Cc1ccc(O)c(O)c1)C(C)Cc1ccc(O)c(O)c1 (stereo not drawn) [Nordihydroguaiaretic acid]
- anti-HSV1 activity at highest concentration tested (HSV1; combined with iron(III), at 330 μM, FIG. 8): no activity
- anti-HSV1 activity (in words) (HSV1; [3]): low activity
- anti-HSV1 activity (in words) (HSV1; test compound paired with Fe^3+, FIG. 7 and FIG. 8, listed as nordihydroguaiaretic acid): no anti-HSV1 activity

Compound: O=S(=O)(O)c1cc(O)c(O)c(S(=O)(=O)O)c1 [Tiron]
- anti-HSV1 activity (in words) (HSV1; [3]): low activity

Compound: Nc1nc2c(ncn2COCCO)c(=O)[nH]1 [acyclovir]
- activity relative to the caffeic acid and iron chelates (HSV1; positive control, FIG. 1 trial): about 20 fold

Compound: O=C(O)C=Cc1ccc(O)c(O)c1 [caffeic acid, 3,4-dihydroxycinnamic acid]
- EC50 (HSV1; Human alphaherpesvirus 1, Vero, FIG. 1, inorganic ions added at half molar ratio to caffeic acid (2:1 organic:inorganic), caffeic acid alone = average of two separate tests, read-out: HSV1 EC50 (inhibition of plaque formation)): 18600 µM
- IC50 (HSV1; [4]): 66.7 µM
- antiviral activity of the substance by itself (in words) (HSV1): weak antiviral properties
- antiviral activity of the substance by itself (in words) (HSV1; listed as Caffeic acid): minimal effect
- effect on HSV2 (in words) (HSV2): minimal effect
- effect on VSV-Ebola pseudotype (in words) (VSV-Ebola pseudotype): minimal effect
- effect on vaccinia virus (in words) [1]: minimal effect
- effect on wild type VSV (in words) [2]: minimal effect
- effect on Zika virus (in words) (Zika virus): unaffected
- effect on Rhinovirus (in words) (Rhinovirus 14): unaffected
- effect on Reovirus (in words) (reovirus type 3): unaffected
- cell viability (Vero cells): ≥ 90%

Compound: Oc1ccccc1O [catechol]
- anti-HSV1 activity (in words) (HSV1; [3]): low activity

Compound: NCCc1ccc(O)c(O)c1 [dopamine]
- anti-HSV1 activity (in words) (HSV1; [3]): low activity

Compound: [Cl][Fe]([Cl])[Cl] [iron(III), iron(III) chloride]
- antiviral activity of the substance by itself (in words) (HSV1): no antiviral properties
- antiviral activity of the substance by itself (in words) (HSV1; listed as Iron(III)): no detectable antiviral activity

Compound: O=C(/C=C/c1ccc(O)c(O)c1)O[C@H](Cc1ccc(O)c(O)c1)C(=O)O [rosmarinic acid]
- IC50 (HSV1; [4]): 101 µM

Compound: caffeic acid+sulfate
- anti-HSV1 activity compared with caffeic acid alone (HSV1; FIG. 1, ion at half molar ratio to caffeic acid): no increased activity over caffeic acid alone

Compound: chicoric acid
- anti-HSV1 activity relative to caffeic acid, molar basis (HSV1; paired with Fe^3+, FIG. 8): a little over triple that of caffeic acid
- IC50 (HSV1; test compound paired with Fe^3+, single dose-response trial, minimum three concentrations, FIG. 7 and FIG. 8): 17.4 µM

Compound: copper(II)
- inhibition of plaque formation (HSV1; inorganic ions in the absence of caffeic acid, 83 μM (highest dose tested), FIG. 2 and FIG. 3): 38%
